From US11155668B2, “Contact-killing, QAC functionalized thermoplastic polyurethane for catheter applications” (THE UNIVERSITY OF AKRON, priority 2017, dated 2021)

Assays:
MRSA = assay: Contact-killing assay (adapted from ISO 22196) on allyl-TPU blade-coated samples modified with Qx-SH; type: cell-based; conditions: n = 1
Protocol: (§1) To functionalize the allyl-TPU blade-coated samples with Qx-SH reagents, thiol-ene reactions were performed using the same procedure described for rhodamine-SH. Briefly, blade-coated films of allyl-TPU (250 μm thick, 2.0 cm diameter, ca. 110 mg, 20 μmol allyl) were submerged in 2 mL of an Ar purged (30 min) aqueous solution containing Qx-SH (10.0 mM) and LAP (5.0 mM), and allowed to pre-soak for 30 min under Ar. UV-treated samples were irradiated for 30 min (λ=365 nm, I=1.2 mW·cm^−2) while phys. ads. samples were kept in the absence of UV light for 30 min to control for any antimicrobial activity that is contributed by non-covalently attached QAC. Following treatment, the dye/photoinitiator solutions were drawn up and discarded, and the samples were rinsed with 5 mL of DI water (3×) then submerged in 5 mL of DI water. The samples were further rinsed with 10% EtOH (3×) and soaked in 10% EtOH for 15 min (3×), rinsing with 10% EtOH in between each soak.
(§2) For antimicrobial testing, blade-coated samples and catheter tubing of allyl-TPU were sterilized by EtO sterilization using an Anprolene benchtop sterilizer (Anderson Products, Inc., Haw River, N.C.) following the manufacturer's protocol to deliver approximately 0.5 cc·L^−1 of EtO gas over a 12 h sterilization cycle at 35% humidity and room temperature, followed by a 48 h purge under vacuum. The bacterial strains used in this study included Staphylococcus epidermidis (ATCC 12228), Staphylococcus aureus (25923), Escherichia coli (ATCC 25922), Pseudomonas aeruginosa (ATCC 27853), Enterococcus faecalis (ATCC 29212), and methicillin-resistant Staphylococcus aureus (MRSA) (ATCC BAA-41).
(§3) The contact-killing assay was performed on physically adsorbed (phys. ads.), and UV-treated blade-coated samples modified with a series of Qx-SH reagents using a method adapted from ISO 22196. See, International Organization for Standardization. Measurement of antibacterial activity on plastics and other non porous surfaces (ISO 22196:2011), the disclosure of which is incorporated herein by reference in its entirety. Briefly, the samples were inoculated with same day cultures of select bacteria (e.g. E. coli, S. epidermidis) in dilute nutrient media (0.2% tryptic soy broth (TSB) in 1× phosphate buffered saline (PBS)) at approximately 150 colony-forming units (CFU)·mm^−2. Generally, 35 uL of 8.5×10^5 CFU/mL cultures were dispersed across the surface of the sample using sterile polypropylene cover films (area=198 mm^2). Inoculated samples were incubated in a humidified room air incubator (36° C., ca. 80% rel. humidity) for 20 h. Following incubation, surviving cells were recovered from the samples using vigorous agitation (i.e. vortexing for 20 s in PBS). Surviving cells were enumerated via 10-fold series dilution and plating 100 μL onto tryptic soy agar (TSA), incubating overnight and then plate counting CFU. The mean CFU recovered per sample (CFU/sample) were calculated by accounting for dilutions. Internal controls samples of polypropylene and chlorhexidine treated with polypropylene were included in the assay.

E. coli [1] = assay: as above; type: cell-based, Escherichia coli (ATCC 25922); conditions: for Mean CFU/Sample Recovered, E. coli: n = 2
Protocol: as §1, §2
as §3, with “Inoculated samples were incubated in a humidified room air incubator (36° C., ca. 80% rel. humidity) for 20 h.” left out

P. aeruginosa = assay: as above; type: cell-based, Pseudomonas aeruginosa (ATCC 27853); conditions: for Mean CFU/Sample Recovered, P. aeruginosa: n = 1
Protocol: as §1, §2, §3

E. faecalis = assay: as above; type: cell-based, Enterococcus faecalis (ATCC 29212); conditions: n = 1
Protocol: as §1, §2, §3

S. epidermidis = assay: as above; type: cell-based, Staphylococcus epidermidis (ATCC 12228); conditions: n = 2
Protocol: as §1, §2, §3

E. coli [2] = assay: Antimicrobial testing using ISO22196 protocol on compression molded samples; type: cell-based; conditions: surface functionalized (covalently attached QAC) sample; FIG. 7B
[3] = UV-treated samples, negative control polypropylene 1.51 × 10^5
[4] = phys. ads. samples, negative control polypropylene 1.51 × 10^5
[5] = UV-treated samples, negative control polypropylene 2.04 (±0.06) × 10^6
[6] = phys. ads. samples, negative control polypropylene 2.04 (±0.06) × 10^6
[7] = UV-treated samples, negative control polypropylene 7.94 × 10^6
[8] = phys. ads. samples, negative control polypropylene 7.94 × 10^6
[9] = UV-treated samples, negative control polypropylene 1.70 × 10^5
[10] = phys. ads. samples, negative control polypropylene 1.70 × 10^5
[11] = UV-treated samples, negative control polypropylene 0.93 (±0.03) × 10^5
[12] = phys. ads. samples, negative control polypropylene 0.93 (±0.03) × 10^5
[13] = UV-treated samples, 24 h contact-killing assay
[14] = positive control (chlorhexidine treated polypropylene)

Compound | Mean CFU/Sample Recovered, MRSA (MRSA; [3]) | Mean CFU/Sample Recovered, MRSA (MRSA; [4]) [CFU/Sample] | Mean CFU/Sample Recovered, E. coli (E. coli [1]; [5]) | Mean CFU/Sample Recovered, E. coli (E. coli [1]; [6]) | Mean CFU/Sample Recovered, P. aeruginosa (P. aeruginosa; [7]) | Mean CFU/Sample Recovered, P. aeruginosa (P. aeruginosa; [8]) | Mean CFU/Sample Recovered, E. faecalis (E. faecalis; [9]) [CFU/Sample] | Mean CFU/Sample Recovered, E. faecalis (E. faecalis; [10]) [CFU/Sample] | Mean CFU/Sample Recovered, S.epidermidis (S. epidermidis; [11]) [CFU/Sample] | Mean CFU/Sample Recovered, S.epidermidis (S. epidermidis; [12]) [CFU/Sample] | log reduction in E. coli compared to the negative control (E. coli [1]; [13]) [log] | reduction in E. coli compared to the negative control (E. coli [1]; [13]) [%] | reduction of P. aeruginosa (P. aeruginosa; UV-treated samples) | Mean CFU/Sample Recovered, MRSA (MRSA; [14]) [CFU/Sample] | Mean CFU/Sample Recovered, E. coli (E. coli [1]; [14]) [CFU/Sample] | Mean CFU/Sample Recovered, P. aeruginosa (P. aeruginosa; [14]) [CFU/Sample] | Mean CFU/Sample Recovered, E. faecalis (E. faecalis; [14]) [CFU/Sample] | Mean CFU/Sample Recovered, S.epidermidis (S. epidermidis; [14]) [CFU/Sample] | log reduction, activity against E. coli (E. coli [2]) [log]
CCCCCCCCCCCCCC[N+](C)(C)CCCCCCCCOC(=O)CCS.[Cl-] [Q14-SH] | 1.00 × 10^2 CFU/Sample | 0.00 | 6.61 (±0.01) × 10^5 CFU/Sample | 6.03 (±0.03) × 10^5 CFU/Sample | 5.25 × 10^6 CFU/Sample | 4.79 × 10^6 CFU/Sample | 0.00 | 0.00 | 0.00 ± 0.00 | 0.00 ± 0.00 |  |  |  |  |  |  |  |  | 
CCCCCCCCCCCC[N+](C)(C)CCCCCCCCOC(=O)CCS.[Cl-] [Q12-SH] | 0.00 CFU/Sample | 0.00 | 0.00 ± 0.00 CFU/Sample | 1.17 (±0.41) × 10^3 CFU/Sample | 0.00 CFU/Sample | 7.24 × 10^5 CFU/Sample | 0.00 | 0.00 | 0.00 ± 0.00 | 0.00 ± 0.00 | 6 | 99.9999 | complete reduction |  |  |  |  |  | 
[H]/N=C(\N/C(=N/[H])NCCCCCCNC(=N)NC(=N)Nc1ccc(Cl)cc1)Nc1ccc(Cl)cc1 [Chlorhexidine, reference compound] |  |  |  |  |  |  |  |  |  |  |  |  |  | 0.00 | 0.00 ± 0.00 | 0.00 | 0.00 | 0.00 ± 0.00 | 
CCCCCCCCCCCCCC[N+](C)(C)CCCCCCCCOC(=O)CCSSCCC(=O)OCCCCCCCC[N+](C)(C)CCCCCCCCCCCCCC.[Cl-].[Cl-] [8-Q14-S-S] |  |  |  |  |  |  |  |  |  |  |  |  |  |  |  |  |  |  | 6
